Where “and” joins values, the source holds several entries; their conditions need not be identical. Equal values may be shown once.

Here are results for 3 substances from publication PMC6620859, “Synthesis and Preclinical Evaluation of the Fibrin-Binding Cyclic Peptide ^18F-iCREKA: Comparison with Its Contrasted Linear Peptide” (Contrast Media & Molecular Imaging, 2019).

The target of data set [1] is T1, fibrin clots (Homo sapiens, UniProt P02671+P02675+P02679).
T1 sequence (P02671 36-629 limits assumed): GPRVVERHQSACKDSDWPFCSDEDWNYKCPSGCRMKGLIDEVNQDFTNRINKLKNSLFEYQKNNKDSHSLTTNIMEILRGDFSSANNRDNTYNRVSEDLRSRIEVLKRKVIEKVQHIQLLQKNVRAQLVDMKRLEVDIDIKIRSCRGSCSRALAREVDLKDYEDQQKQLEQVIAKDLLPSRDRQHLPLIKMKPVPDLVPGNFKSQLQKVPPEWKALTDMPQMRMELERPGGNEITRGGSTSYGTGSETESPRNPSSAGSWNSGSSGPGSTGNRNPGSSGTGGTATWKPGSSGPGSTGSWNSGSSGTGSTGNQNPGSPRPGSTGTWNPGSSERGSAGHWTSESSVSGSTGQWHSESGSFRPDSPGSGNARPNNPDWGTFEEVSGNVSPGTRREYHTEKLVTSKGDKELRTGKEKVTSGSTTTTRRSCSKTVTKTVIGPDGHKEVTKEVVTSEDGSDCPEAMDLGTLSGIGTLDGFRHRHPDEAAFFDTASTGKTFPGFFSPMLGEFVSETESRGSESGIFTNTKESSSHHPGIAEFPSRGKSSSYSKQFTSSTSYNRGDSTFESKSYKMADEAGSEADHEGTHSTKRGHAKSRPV
T1 sequence (P02675 45-491 limits assumed): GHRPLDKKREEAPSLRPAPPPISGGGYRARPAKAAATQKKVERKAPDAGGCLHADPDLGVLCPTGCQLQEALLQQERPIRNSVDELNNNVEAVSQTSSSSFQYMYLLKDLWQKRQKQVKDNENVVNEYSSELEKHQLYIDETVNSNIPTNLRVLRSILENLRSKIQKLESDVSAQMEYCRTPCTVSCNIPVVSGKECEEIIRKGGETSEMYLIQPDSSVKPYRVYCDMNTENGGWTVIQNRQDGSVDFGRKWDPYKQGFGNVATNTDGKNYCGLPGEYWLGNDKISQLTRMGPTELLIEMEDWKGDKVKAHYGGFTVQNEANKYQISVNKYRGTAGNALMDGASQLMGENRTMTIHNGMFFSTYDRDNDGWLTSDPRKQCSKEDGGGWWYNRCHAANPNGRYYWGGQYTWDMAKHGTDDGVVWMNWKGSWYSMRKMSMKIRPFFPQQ
T1 sequence (P02679 27-437 isoform P02679-2 limits assumed): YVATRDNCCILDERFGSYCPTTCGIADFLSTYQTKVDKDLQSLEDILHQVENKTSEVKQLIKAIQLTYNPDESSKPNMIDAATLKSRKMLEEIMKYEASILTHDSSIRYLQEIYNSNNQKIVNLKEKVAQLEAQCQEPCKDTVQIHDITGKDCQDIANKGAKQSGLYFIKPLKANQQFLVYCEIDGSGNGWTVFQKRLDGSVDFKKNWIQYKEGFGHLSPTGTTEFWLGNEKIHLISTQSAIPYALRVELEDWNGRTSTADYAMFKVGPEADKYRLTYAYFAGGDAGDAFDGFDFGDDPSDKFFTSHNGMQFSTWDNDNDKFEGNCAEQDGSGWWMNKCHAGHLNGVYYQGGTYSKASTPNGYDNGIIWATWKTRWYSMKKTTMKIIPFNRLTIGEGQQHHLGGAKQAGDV
Briefly: Fluorine-18-labeled peptide binding affinity to fibrin clots. The settings on record: clots from 75 μL fibrinogen 2 mg/mL + 30 μL thrombin 2.5 U/mL; 100 μL tracer in PBS, 37°C, one hour, PBS washed three times, radioactive counter, four tubes, mean ± SD. The procedure: As previously reported, to synthesize fibrin clots, 75 μL of fibrinogen solution (2 mg/mL) in 0.9% NaCl was added to four 1.5 mL EP tubes. 30 μL of a 2.5 U/mL thrombin solution in 0.9% NaCl was subsequently added to these tubes. The tubes were placed in the thermostatic oscillator at 37°C for four hours, and the gels representative of fibrin clots were formed in the tubes. 370 KBq (10 μCi) fluorine-18-labeled peptide was diluted in 1 ml PBS. 100 μL of the solution was added into each tube, respectively, and added into four empty tubes for reference. All tubes were incubated at 37°C for one hour. After that, the supernatant liquid was carefully pipetted. PBS was added and pipetted three times to remove any CREKA or peptides not bond to the fibrin clots. Finally, all tubes were measured by a CAPRAC®-R radioactive counter (Imaxeon) to obtain the bond-to-gross ratio.

Data set [2] concerns U87MG xenograft. The settings on record: mouse, in vivo. As for the experimental part: Animal procedures were performed according to the guideline of the Animal Ethics Committee of the Southern Medical University. Approximately 10 × 10^6 U87MG cells and Caov3 cells were suspended in PBS and subcutaneously implanted in the right armpit of female BALB/c nude mice. Tumors were allowed to grow to a size of 0.5–1.5 cm in diameter.
Small-animal PET/CTs were performed at the PET center of Southern Medical University Nanfang Hospital using a PET/CT scanner (Simens Inveon Micro-PET/CT). Tumor-bearing mice (n = 3/group) were intravenously injected with 5.55 MBq of ^18F-NOTA-LP or ^18F-NOTA-iCREKA under isoflurane anesthesia. A ten-minute static PET scan for each animal was acquired at 30, 60, and 120 min after the injection. 120 min dynamic scans were also obtained for ^18F-NOTA-LP and ^18F-NOTA-iCREKA (n = 2/group). The 3-dimensional ordered subset expectation maximization (3D-OSEM) algorithm was used for the PET reconstruction, and CT was applied for attenuation correction. Inveon Research Workplace (IRW) 3.0 software (Siemens, Germany) was used to measure the regions of interest (ROIs). The radioactivity concentrations were computed automatically, and the results were reflected by the unit of percent injected dose per gram (%ID/g). The maximum %ID/g of the ROIs was used for statistical analyses. Tumor-to-muscle (T/M) uptake ratios were calculated by dividing the radioactivity uptake in the tumor by the contralateral shoulder muscle.

In data set [3] the test system is Caov3 cells. Briefly: Cellular uptake test in Caov3 cells. The class given is cell-based, human. The settings on record: radio medium mixed with activated MMP-2; compared with no activation. As for the experimental part:
(§1) U87MG cells and Caov3 cells were counted and uniformly inoculated into 24-well plates. The 24-well plates were marked, and cells were incubated for 24 hours in complete DMEM with 10% fetal bovine serum. Radio medium was prepared by adding 888 KBq (24 μCi) fluorine-18-labeled peptide into 15 mL DMEM without any serum. After incubation, the complete DMEM were poured and the radio medium were added in with 500 μL/well. The remainder medium were collected into 4 γ countertubes with 500 μL/tube to be representative of radioactivity gross. When the time arrived at 2, 5, 15, 30, 60, and 120 min, the radio medium were carefully pipetted out and the wells were carefully rinsed by 1 mL of PBS for 3 times. 4 wells were divided into a group corresponding to one time point. After the rinsing, SDS-NaOH solutions were added into the wells to dissociate the cells. The solutions were collected into γ countertubes to measure the radioactivity. The binding affinity was reflected by the radioactivity percentage, which was recorded as ID%, of the wells and the gross. The final results were recorded as the time-radioactivity curve including the six time points.
(§2) Fluorine-18 labeled peptides binding affinities after activation were also measured by this protocol while the radio-medium were mixed with activated MMP-2 (Abcam).

The test system of data set [4] is U87MG cells. Briefly: Cellular uptake test in U87MG cells. The data set is classed as cell-based, human. The settings on record: for cellular uptake to U87MG cells after activation by MMP-2: radio medium mixed with activated MMP-2, compared with no activation; for cellular uptake percentage (ID%), peak / maximum, U87MG cells: without MMP-2 activation, serum-free DMEM, 500 μL/well, 2-120 min, PBS rinsed 3 times, γ counting, 4 wells per time point. The procedure: as §1, §2

Data set [5] is classed as physicochemical. The procedure:
The water partition coefficient was reflected by the logP value of the fluorine-18-labeled peptides. 500 μL of octanol and 500 μL of pure water were added into an EP tube. 185 KBq (5 μCi) of fluorine-18-labeled peptides were added into the solution and well mixed. After centrifugating for 5 min at a speed of 1000 r/min, 300 μL of supernatant liquid and 300 μL of lower liquid were carefully pipetted into two γ countertubes, respectively. The logarithm of the radioactivity ratio of octanol to water was the logP value. The test was repeated four times for each fluorine-18-labeled peptide.

For data set [6] the following is noted: mouse, in vivo. The procedure:
A nude with U87MG xenograft was injected with a dose of approximately 11.1 MBq (0.3 mCi) of ^18F-labeled peptides via the tail vein. The mouse was euthanized at 30 min after injection, the tumor was carefully excised, and the blood was collected. The tumor was cut into pieces and made into homogenates by mixing 200 μL normal saline. The mixture was centrifuged for 10 min at a speed of 12000 r/min. The supernatant liquid was carefully pipetted and transferred into an Amicon® Ultracentrifugal filter device for further centrifugation. The filtrate was injected into an HPLC column to analyze the in vivo stability of fluorine-18-labeled peptide.

Regarding “CREKAPLGLAGRKKRRQRRRCK (NOTA) [^18F-NOTA-LP, Al^18F-labeled NOTA conjunct of the contrasted linear peptide LP]”, the “fibrin-binding percentage (bond-to-gross ratio)” value in data set [1] was 67.09 ± 6.20%. For the same substance, in data set [2], the “maximum T/M ratio on dynamic micro-PET” value came out at 2.69 ± 0.35 and the “tumor-to-muscle (T/M) ratio on micro-PET” value was determined as 2.08 ± 0.50. Also, in data set [3], the “cellular uptake to Caov3 cells after activation by MMP-2” value (shortened to “cellular uptake to Caov3 cells”) is “slightly higher”. Besides, in data set [4], the “cellular uptake to U87MG cells after activation by MMP-2” value (“cellular uptake to U87MG cells” below) is reported as “increased”; the “cellular uptake percentage (ID%), peak / maximum, U87MG cells” value was 16.05% and 23.90%. This substance registered a logP value in data set [5] of −2.57 ± 0.02.
As to “NOTA-CREKA [^18F-NOTA-CREKA, Al^18F-labeled NOTA conjunct of the pentapeptide CREKA]”, the “fibrin-binding percentage (bond-to-gross ratio)” value in data set [1] was 69.31% ± 6.82. The “cellular uptake to Caov3 cells” value in data set [3] is “nearly no radioactivity”. For the same substance, in data set [4], the “cellular uptake to U87MG cells” value is on record as “still no radioactivity”. In data set [5], this substance gave a logP value of −2.47 ± 0.05.
In the case of “CREKAPLGLAGRKKRRQRRRCK (NOTA) (Cys&Cys bridge) (disulfide) [^18F-NOTA-iCREKA]”, the “fibrin-binding percentage (bond-to-gross ratio)” value in data set [1] was 67.92 ± 6.71%. Further, in data set [2], the kidney uptake result is “about 27 %ID/g”, the liver uptake entry is reported as “about 4 %ID/g” and the “tumor-to-muscle (T/M) ratio on micro-PET” value turned out to be 6.48 ± 0.50. Moreover, the “cellular uptake to Caov3 cells” value in data set [3] is on record as “obviously increased”. For the same substance, in data set [6], the “area under the time-radioactivity curve representative of defluorination, blood” value came to 27.78% and the “area under the time-radioactivity curve representative of defluorination, tumor” value was 23.28%. In data set [4], the “cellular uptake to U87MG cells” value is listed as “increased”; the “cellular uptake percentage (ID%), peak / maximum, U87MG cells” value was 23.90% and 16.05%. This substance also came in with a logP value in data set [5] of −2.51 ± 0.01.
